Measured values published in US6218384A, “3-Oxo-pyrido(1,2-a)benzimidazole-4-carboxyl and 4-oxo-azepino(1,2-a)benzimidazole-5-carboxyl derivatives useful in treating central nervous system disorders” (Ortho-McNeil Pharmaceutical, Inc., priority 1997, dated 2001).
Where two headings read alike, the source gives them in different places.

How the values were obtained:
[1] = Suppression of anxiety (punished licking, conflict test) in the adult male rat; assay type: in vivo, male rats
Protocol: The anxiolytic activity of selected compounds of the invention was assessed by determining their ability to release (disinhibit) behavior that had been suppressed by punishment (Vogel, J. R. et al. Psychopharmacology 1971, 21, 1). Male rats were deprived of water for 48 hours and were deprived of food for 24 hours prior to testing. After the first 24 hours of water deprivation, they were placed in the conflict chamber for a training period; wherein, they were allowed 200 unpunished licks from a bottle containing tap water. The experiment was run the next day. At the expected time of peak activity, the animals were placed in the chamber and allowed access to tap water. […] Their first lick initiates a 3-min test session. Subsequently,every 20th lick was punished by a 0.2-s shock delivered via the stainless-steel drinking-tube. Vehicle-treated control animals generally were willing to accept a median number of 3 to 8 shocks per test session. […] The Wilcoxon rank-sum test (Mann-WhitneyU-test) was used to test for an increase (p<0.05, 1-tailed) in the median number of shocks in drug-treated groups, compared to a concurrently run vehicle-treated group. The biological assay is considered to be valid if the effects of a known anxiolytic (positive control) are detected, within the same experiment. A compound was considered active if there is a significant difference in the median number of shocks tolerated between the drug-treated group and the control group. The MED was defined as the minimum dose of the drug-treatment as analyzed using the Wilcoxon rank-sum test (SAS; Statistical Analysis System, version 5.16). If the MED value is greater than 10, an active dose of the compound being tested had not been determined.

[2] = Suppression of metrazol-induced convulsions; assay type: in vivo, male CD1 mice; settings: mice; for ED50: Mus musculus, 0.5 h
Protocol: Selected compounds of the invention were tested for their ability to reduce metrazol-induced convulsions in mice (Swinyard, E. A. J. Am. Pharm Assoc. 1949, 38, 201). Male CD1 mice, were fasted at least 16 hours, were divided into equal groups and test compounds or vehicle were administered parenterally. Water was not withheld except during the period of observations. At the time of suspected peak activity, anti-pentylenetetrazol (anti-metrazol) activity was evaluated by the subcutaneous administration of the CD90 dose of metrazol (the dose of metrazol was determined from the dose-response curve producing clonic convulsions in 90% of animals that received the corresponding vehicle for this experiment). Metrazol was dissolved in 0.9% sodium chloride solution, and its dose volume was 10 ml/kg. Animals were housed individually for observation of clonic convulsions, tonic convulsions and death for a period of 30 min. Test compounds that blocked the clonic seizure component of the convulsion in at least 50% of the animals were considered active. The biological assay was considered to be valid if the effects of a known anticonvulsant (positive control) were detected, within the same experiment. Activity was reported as percent reduction of clonic convulsions from the vehicle group. The ED50 values of active compounds were calculated by the method of probits (Finney, D. J. 1971. Probit Analysis. London: Cambridge University Press) and are listed in Tables 1 to 5.

[3] = target: benzodiazepine site of the GABA-A receptor; experiment: Benzodiazepine Receptor Binding Assay (inhibition of 3H-flunitrazepam binding); settings: ca. 3 nM 3H-flunitrazepam
[4] = Table 1, ip, minimum effective dose, >10 = active dose not determined, read-out: Conflict (ip) MED
[5] = Table 1, ip, clonic convulsions after sc CD90 metrazol, >30 = active dose not determined, read-out: Metrazol (ip) ED50
[6] = Table 1, 25° C., 10-20 min, >10,000 = not active
[7] = Table 3, minimum effective dose, read-out: Conflict MED
[8] = Table 3, parenteral, clonic convulsions, read-out: Antimetrazol ED50
[9] = Table 5, minimum effective dose, read-out: Conflict MED
[10] = Table 5, parenteral, clonic convulsions, read-out: Antimetrazol ED50

Compound	minimal effective dose [1, 4] [mg/kg]	ED50 [2, 5] [mg/kg]	IC50 [3, 6] [µM]	further results
O=C1CCN2C(=C1C(=O)Nc1c(F)c(F)c(F)c(F)c1F)Nc1ccccc12 [compound 91]	10	1 to 10	0.27	–
Cc1ccccc1NC(=O)C1=C2Nc3ccccc3N2CCC1=O [compound 31]	10	> 30	0.23	–
CN1C2=C(C(=O)Nc3c(F)cc(F)cc3F)C(=O)CCN2c2ccccc21 [compound 135]	–	–	–	minimal effective dose [1, 7]: > 10 mg/kg; ED50 [2, 8]: 10 mg/kg; IC50 ([3]; Table 3): 0.013 µM
O=C1CCN2C(=C1C(=O)Nc1cc(F)ccc1F)Nc1ccccc12 [compound 98]	> 30	> 30	0.012	–
Cc1cc(NC(=O)C2=C3Nc4ccccc4N3CCC2=O)c2ccccc2n1 [compound 76]	> 10	10	10	–
CSc1ccc(NC(=O)C2=C3Nc4ccccc4N3CCC2=O)cc1 [compound 23]	> 10	10	0.4	–
CN(C)c1ccc(NC(=O)C2=C3Nc4ccccc4N3CCCC2=O)cc1 [compound 149]	–	–	–	minimal effective dose [1, 9]: > 10 mg/kg; ED50 [2, 10]: > 10 mg/kg; IC50 ([3]; Table 5): 1.12 µM
O=C1CCN2C(=C1C(=O)Nc1ccccc1F)Nc1ccccc12 [compound 20]	1	0.1	0.0017	–
CCCN1C2=C(C(=O)Nc3ccccc3F)C(=O)CCN2c2ccccc21 [compound 130]	–	–	–	minimal effective dose [1, 7]: < 0.3 mg/kg; ED50 [2, 8]: 0.1 mg/kg; IC50 ([3]; Table 3): < 0.001 µM
Cc1cccc2c1NC1=C(C(=O)Nc3ccccc3)C(=O)CCN12 [compound 89]	> 10	1	0.01	–
CN1C2=C(C(=O)Nc3ccccc3)C(=O)CCN2c2ccccc21 [compound 120]	–	–	–	minimal effective dose [1, 7]: < 1 mg/kg; ED50 [2, 8]: < 1 mg/kg; IC50 ([3]; Table 3): 0.006 µM
O=C1CCCN2C(=C1C(=O)Nc1ccncc1)Nc1ccccc12 [compound 152]	–	–	–	minimal effective dose [1, 9]: < 10 mg/kg; ED50 [2, 10]: > 10 mg/kg; IC50 ([3]; Table 5): 1.46 µM
O=C1CCN2C(=C1C(=O)Nc1cccc(Cl)c1)Nc1ccccc12 [compound 6]	> 10	> 30	0.12	–
O=C1CCN2C(=C1C(=O)NN1CCOCC1)Nc1ccccc12 [compound 60]	< 10	> 10	3	–
COc1ccccc1NC(=O)C1=C2Nc3ccccc3N2CCC1=O [compound 26]	> 10	> 10	0.99	–
COc1ccc2c(c1)NC1=C(C(=O)NC3CCCCC3)C(=O)CCN12 [compound 37]	10	10	0.8	–
O=C1CCN2C(=C1C(=O)Nc1c(F)cccc1F)Nc1cc(Cl)ccc12 [compound 114]	3	1	0.006	–
O=C1CCN2C(=C1C(=O)Nc1ccc3[nH]nnc3c1)Nc1ccccc12 [compound 73]	> 10	> 10	0.16	–
O=C1CCN2C(=C1C(=O)Nc1ccccc1)Nc1ccc(Cl)cc12 [compound 84]	> 10	> 10	0.17	–
O=C1CCN2C(=C1C(=O)Nc1ccccc1F)Nc1cc(Cl)ccc12 [compound 113]	< 10	1	0.005	–
O=C1CCN2C(=C1C(=O)Nc1ccccc1)N(Cc1ccccc1)c1ccccc12 [compound 127]	–	–	–	minimal effective dose [1, 7]: 10 mg/kg; ED50 [2, 8]: 3 mg/kg; IC50 ([3]; Table 3): 0.012 µM
O=C1CCN2C(=C1C(=O)Nc1ccc3ncccc3c1)Nc1ccccc12 [compound 41]	> 10	> 30	0.13	–
COc1cccc(NC(=O)C2=C3Nc4ccccc4N3CCC2=O)c1 [compound 21]	5	0.3	0.026	–

Compound	minimal effective dose [1, 4] [mg/kg]	ED50 [2, 5] [mg/kg]	IC50 [3, 6] [µM]	further results
O=C1CCN2C(=C1C(=O)Nc1c(F)cc(F)cc1F)Nc1ccccc12 [compound 93]	3	1	0.015	–
O=C1CCCN2C(=C1C(=O)Nc1ccc(F)cc1F)N(Cc1ccccc1)c1ccccc12 [compound 156]	–	–	–	minimal effective dose [1, 9]: > 10 mg/kg; ED50 [2, 10]: > 10 mg/kg; IC50 ([3]; Table 5): 0.33 µM
CCCCNC(=O)C1=C2Nc3ccccc3N2CCC1=O [compound 38]	> 10	> 10	0.054	–
CN(C)c1ccccc1NC(=O)C1=C2Nc3ccccc3N2CCC1=O [compound 87]	10	10	10	–
O=C1CCN2C(=C1C(=O)Nc1cccnc1Cl)Nc1ccccc12 [compound 70]	10	3	0.068	–
O=C1CCCN2C(=C1C(=O)Nc1ccc(F)cc1F)Nc1ccccc12 [compound 155]	–	–	–	minimal effective dose [1, 9]: > 10 mg/kg; ED50 [2, 10]: 10 mg/kg; IC50 ([3]; Table 5): 0.039 µM
O=C1CCN2C(=C1C(=O)Nc1ccc(F)cc1F)N(Cc1ccccc1)c1ccccc12 [compound 129]	–	–	–	minimal effective dose [1, 7]: > 10 mg/kg; ED50 [2, 8]: 1 mg/kg; IC50 ([3]; Table 3): 0.012 µM
N-(2,4-Difluorophenyl)-4-oxo-1,2,3,4-tetrahydro-6H-azepino(1,2-a)benzimidazol-5-carboxamide [CP 155]	–	–	0.21	Conflict (ip) MED ([1]; Table 1, ip, minimum effective dose, >10 = active dose not determined): > 10 mg/kg; Metrazol (ip) ED50 ([2]; Table 1, ip, clonic convulsions after sc CD90 metrazol, >30 = active dose not determined, 30 min): 10 to 30 mg/kg
CN1C2=C(C(=O)Nc3ccncc3)C(=O)CCN2c2ccccc21 [compound 126]	–	–	–	minimal effective dose [1, 7]: < 10 mg/kg; ED50 [2, 8]: 3 mg/kg; IC50 ([3]; Table 3): 0.23 µM
O=C1CCN2C(=C1C(=O)Nc1ccc(F)c(F)c1F)Nc1ccccc12 [compound 96]	> 10	> 10	1.5	–
O=C1CCN2C(=C1C(=O)Nc1ccncc1)Nc1cc(F)ccc12 [compound 106]	3	3	0.042	–
O=C1CCN2C(=C1C(=O)Nc1ccccc1F)N(Cc1ccccc1)c1ccccc12 [compound 128]	–	–	–	minimal effective dose [1, 7]: > 10 mg/kg; ED50 [2, 8]: 1 mg/kg; IC50 ([3]; Table 3): 0.088 µM
NC(=O)C1=C2Nc3ccccc3N2CCC1=O [compound 29]	10	> 3	2.4	–
CN(C)c1ccc(NC(=O)C2=C3Nc4cc(Cl)ccc4N3CCC2=O)cc1 [compound 80]	> 10	10	0.22	–
O=C1CCN2C(=C1C(=O)Nc1ccc(C(=O)O)cc1)Nc1ccccc12 [compound 28]	10	> 30	> 10	–
CN(C)c1ccc(NC(=O)C2=C3N(C)c4ccccc4N3CCC2=O)cc1 [compound 124]	–	–	–	minimal effective dose [1, 7]: 10 mg/kg; ED50 [2, 8]: 1 to 3 mg/kg; IC50 ([3]; Table 3): 0.029 µM
O=C1CCN2C(=C1C(=O)Nc1ccncc1)Nc1cc(Cl)ccc12 [compound 82]	> 10	3	0.38	–
CN1C2=C(C(=O)Nc3ccncc3)C(=O)CCCN2c2ccccc21 [compound 153]	–	–	–	minimal effective dose [1, 9]: > 10 mg/kg; ED50 [2, 10]: > 10 mg/kg; IC50 ([3]; Table 5): 2.6 µM
O=C1CCN2C(=C1C(=O)NCc1cccnc1)Nc1ccccc12 [compound 62]	> 10	> 10	0.155	–
COc1ccc(NC(=O)C2=C3Nc4ccccc4N3CCC2=O)cc1OC [compound 8]	> 10	> 30	0.032	–
Cc1cccc2c1NC1=C(C(=O)Nc3ccccc3F)C(=O)CCN12 [compound 94]	< 10	1	0.096	–
CN(C)c1ccc(NC(=O)C2=C3Nc4ccccc4N3CCC2=O)cc1 [compound 24]	3	3	0.27	–
